For the assay, the system named is rats with middle cerebral artery occlusion (MCAO). In words: Hindlimb placing test, MCAO rats, dose escalation study (Example 17). Type of assay: in vivo, Sprague Dawley rat. The source says: Limb Placing: Evaluated at Day −1 (pre-operation), Day 1, Day 7, Day 14, Day 21, Day 28, Day 30, Day 32, Day 42, Day 44, Day 46, Day 56, Day 58, Day 60. The limb placing tests were divided into forelimb and hindlimb tests. For the forelimb-placing test, the examiner held the rat close to a tabletop and scored the rat's ability to place the forelimb on the tabletop in response to whisker, visual, tactile, or proprioceptive stimulation. Similarly, for the hindlimb placing test, the examiner assessed the rat's ability to place the hindlimb on the tabletop in response to tactile and proprioceptive stimulation. Together, these tests reflect function and recovery in the sensorimotor systems (De Ryck et al., Brain Res 1992; 573:44-60). Separate sub-scores were obtained for each mode of sensory input and added to give total scores (for the forelimb placing test: 0=normal, 12=maximally impaired; for the hindlimb placing test: 0=normal; 6=maximally impaired). Scores were given in half-point increments (see below). Typically, there is a slow and steady recovery of limb placing behavior during the first month after stroke.
Hindlimb placing test (0-6): • tactile placing (dorsal (0-2), lateral (0-2)) • proprioceptive placing (0-2).
For each subtest, animals are scored as followed: • 0.0=immediate response • 0.5=response within 2 seconds • 1.0=response of 2-3 seconds • 1.5=response of >3 seconds • 2.0=no response
4-AP was evaluated for its ability to promote functional sensorimotor improvement following ischemic stroke in rats with stable motor deficits at times remote from their ischemic events. The animal model of ischemic stroke, i.e., the MCAO model, used in this example is the same as the animal model described in Example 2.
In the MCAO model recovery begins to plateau by 4 weeks after MCAO, at which time there are still measurable deficits in sensorimotor function. However, 4 weeks after MCAO there may still be slow continued endogenous recovery.
4-aminopyridine was dissolved in water for injection (WFI, Cellgro) and sterile filtered. Solutions of 0.25 mg/mL, 0.5 mg/mL and 1.0 mg/mL of 4-aminopyridine were delivered by gastric gavage at 2 mL/kg for final doses of 0.5 mg/kg, 1 mg/kg or 2.0 mg/kg respectively. Vehicle control treatment was WFI delivered at 2 mL/kg by gastric gavage. Starting on Day 56 after MCAO, animals received gastric gavage of solutions (2 mL/kg) approximately 12 hours apart. The vehicle control group was treated with water for all doses on Days 56-65. For the treated group, six doses of 4-aminopyridine at 0.5 mg/kg were delivered over Days 56-59, followed by six doses at 1.0 mg/kg over Days 59-62 and six doses at 2.0 mg/kg over Days 62-65. Animals in all groups were not treated during Days 66-70. p.o.=par oral. […]

Regarding `Nc1ccncc1` [4-aminopyridine], the “Hind limb placing score compared to vehicle” value (0.5 mg/kg b.i.d. p.o., Day 59) is reported as “improved with the low dose but did not reach significance”. Moreover, where the note is “1 mg/kg b.i.d. p.o., Day 62, p<0.05”, the “Hind limb placing compared to vehicle” value is “measureable improvement”. For the setting “2 mg/kg b.i.d. p.o., Day 65, p<0.001”, the “Hind limb function compared to vehicle” value was “significant improvements”. Also, for the setting “Day 70, p<0.05”, the “Hind limb score after treatment withdrawn for 5 days” value is given as “remained greater than the vehicle treated group”.

These data come from patent US20160067232A1, “METHODS FOR TREATING A STROKE-RELATED SENSORIMOTOR IMPAIRMENT USING AMINOPYRIDINES” (Acorda Therapeutics, Inc., priority 2011, published 2016).
